{
  "source": "patent US10662178B2",
  "about": "“Crystalline form of Olaparib” (Apotex Inc., priority 2018, dated 2020)",
  "origin": "cited, not measured here",
  "conditions": "CHMP Assessment Report EMEA/H/C/003726/0000",
  "data": [
    {"compound": "O=C(c1cc(Cc2n[nH]c(=O)c3ccccc23)ccc1F)N1CCN(C(=O)C2CC2)CC1", "note": "[Olaparib, 4-[(3-{[4-(cyclopropylcarbonyl)-piperazin-1-yl]carbonyl}-4-fluorophenyl)methyl]phthalazin-1(2H)-one]", "values": [
      {"measurement": "Biopharmaceutics Classification System (BCS) class", "value": "Class IV"},
      {"measurement": "solubility", "setting": "drug substance in the approved drug product LYNPARZA", "value": "low solubility"}
    ]}
  ]
}
